How the values were obtained:
[1] = test system: IL-2 production from PMA and αCD3 antibody stimulated human PBMCs; type: cell-based
[2] = test system: IFNγ production from PMA and αCD3 antibody stimulated human PBMCs; type: cell-based
[3] = test system: IL-2 production from αCD3 and αCD28 antibody stimulated human PBMCs; type: cell-based
[4] = test system: IFNγ production from αCD3 and αCD28 antibody stimulated human PBMCs; type: cell-based
[5] = test system: thapsigargin-induced IFN-g production in human whole blood; type: cell-based
[6] = test system: CD40L on CD4+ T cells in human whole blood; type: cell-based
[7] = test system: IL-2R on CD4+ T cells in human whole blood; type: cell-based
[8] = test system: adoptive transfer EAE model of multiple sclerosis; details: rat, in vivo, sc
[9] = test system: thapsigargin-induced IL-2 production in human whole blood
[10] = rat, in vivo, iv
[11] = test system: T cell proliferation in human PBMCs; test: T cell proliferation (3H-thymidine incorporation) in anti-CD3/anti-CD28 stimulated human PBMCs; type: cell-based; details: two normal donors
Excerpt: Inhibition of T cell proliferation following anti-CD3 and anti-CD28 antibody stimulation of PBMCs. PBMC's were previously isolated from normal human donor Leukophoresis packs, purified by density gradient centrifugation (Ficoll Hypaque), cryopreserved in CPZ Cryopreservation Medium Complete (INCELL, MCPZF-100 plus 10% DMSO final). PBMC's were thawed (95% viability), washed, and seeded at 2×10^5 cells per well in culture medium (RPMI medium 1640; GIBCO) supplemented with 10% fetal calf serum, 100 U/ml penicillin, […] streptomycin, 2 mM L-glutamine, 100 μM non-essential amino acids, and 20 μM 2-ME) in 96-well flat-bottom tissue culture plates. Cells were pre-incubated with either anti-human CD32 (FcyRII) blocking antibody (per manufacturers instructions EASY SEP Human Biotin Selection Kit #18553, StemCell Technologies Vancouver, BC) or Fc-L10-ShK (100 nM-0.001 nM final) for 45 min. Fc-L10-ShK (100 nM-0.001 nM final) was then added to the cells containing anti-human CD32 blocking antibody while medium was added to the cells containing Fc-L10-ShK. Both sets were incubated for an additional 45 min before stimulating for 48 hr with aCD3/aCD28 (0.2 ng/ml and 100 ng/ml, respectively). Final assay volume was 200 ul. […] Cells were then harvested onto glass fiber filters and radioactivity was measured in a B-scintillation counter.

[12] = molecular target: HEK 293 cells overexpressing human Kv1.3 (Homo sapiens, UniProt P22001); test: Immunohistochemistry of binding to HEK 293 cells overexpressing human Kv1.3; details: 5 μg/ml peptibody
HEK 293 cells overexpressing human Kv1.3, sequence (P22001 whole entry): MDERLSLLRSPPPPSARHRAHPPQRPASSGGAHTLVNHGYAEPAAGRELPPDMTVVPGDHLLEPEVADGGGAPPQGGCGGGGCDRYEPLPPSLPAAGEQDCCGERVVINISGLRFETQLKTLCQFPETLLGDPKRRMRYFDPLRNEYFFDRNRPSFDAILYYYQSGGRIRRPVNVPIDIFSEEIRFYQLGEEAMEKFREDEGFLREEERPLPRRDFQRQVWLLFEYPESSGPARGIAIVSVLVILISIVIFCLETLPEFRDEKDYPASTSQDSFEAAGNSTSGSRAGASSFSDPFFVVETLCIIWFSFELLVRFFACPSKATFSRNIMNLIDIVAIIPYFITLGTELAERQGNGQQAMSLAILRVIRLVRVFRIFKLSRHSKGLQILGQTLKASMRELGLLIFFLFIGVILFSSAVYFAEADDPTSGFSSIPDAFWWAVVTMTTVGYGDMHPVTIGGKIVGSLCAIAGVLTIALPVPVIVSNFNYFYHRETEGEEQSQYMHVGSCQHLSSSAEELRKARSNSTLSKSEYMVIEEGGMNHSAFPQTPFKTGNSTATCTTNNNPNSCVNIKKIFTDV
Description: Immunohistochemistry analysis of Fc-L10-ShK[1-35] binding to HEK 293 cells overexpressing human Kv1.3. HEK 293 cells overexpressing human Kv1.3 (HEK Kv1.3) were obtained from BioFocus plc (Cambridge, UK) and maintained per manufacturer's recommendation. The parental HEK 293 cell line was used as a control. Cells were plated on Poly-D-Lysine 24 well plates (#35-4414; Becton-Dickinson, Bedford, Mass.) and allowed to grow to approximately 70% confluence. HEK KV1.3 were plated at 0.5×10e5 cells/well in 1 ml/well of medium. HEK 293 cells were plated at a density of 1.5×10e5 cells/well in 1 ml/well of medium. Before staining, cells were fixed with formalin (Sigma HT50-1-1 Formalin solution, diluted 1:1 with PBS/0.5% BSA before use) by removing cell growth medium, adding 0.2 ml/well formalin solution and incubating at room temperature for ten minutes. Cells were stained by incubating with 0.2 ml/well of 5 μg/ml Fc-L10-ShK[1-35] in PBS/BSA for 30′ at room temperature. Fc-L10-ShK[1-35] was aspirated and then the cells were washed one time with PBS/0.5% BSA. Detection antibody (Goat F(ab)2 anti-human IgG-phycoerythrin; Southern Biotech Associates, Birmingham, Ala.) was added to the wells at 5 μg/ml in PBS/0.5% BSA and incubated for 30′ at room temperature. Wash cells once with PBS/0.5% BSA and examine using confocal microscopy (LSM 510 Meta Confocal Microscope; Carl Zeiss AG, Germany). […]

[13] = molecular target: fixed HEK 293 cells stably transfected with human Kv1.3 (Homo sapiens, UniProt P22001); test: Whole cell immunoassay (ELISA) on fixed HEK 293 cells overexpressing Kv1.3; type: binding
fixed HEK 293 cells stably transfected with human Kv1.3, sequence (P22001 whole entry): as above
Description: Our peptibody reagent can be a useful and convenient tool for monitoring Kv1.3 channel expression in patients and have utility in diagnostic applications. The procedure shown in FIG. 34A and FIG. 34B follows.
FIG. 34A. A whole cell immunoassay was performed to show binding of intact Fc-L10-ShK[1-35] to Kv1.3 transfected HEK 293 cells (BioFocus plc, Cambridge, UK). Parent HEK 293 cells or HEK Kv1.3 cells were plated at 3×10e4 cells/well in poly-D-Lysine coated ninety-six well plates (#35-4461; Becton-Dickinson, Bedford, Mass.). Cells were fixed with formalin (Sigma HT50-1-1 Formalin solution, diluted 1:1 with PBS/0.5% BSA before use) by removing cell growth medium, adding 0.2 ml/well formalin solution and incubating at room temperature for 25 minutes and then washing one time with 100 μl/well of PBS/0.5% BSA. Wells were blocked by addition of 0.3 ml/well of BSA blocker (50-61-00; KPL 10% BSA Diluent/Blocking Solution, diluted 1:1 with PBS; KPL, Gaithersburg, Md.) followed by incubation at room temperature, with shaking, for 3 hr. Plates were washed 2 times with 1×KP Wash Buffer (50-63-00; KPL). […] Absorbance was read at 450 nm on a Molecular Devices SpectroMax 340 (Sunnyvale, Calif.).
FIG. 34B. […] Absorbances were read at 405 nm after stopping reactions by addition of 0.1 ml/well of 1% SDS.

| Compound | inhibition of IL-2 production [1] | inhibition of IFNγ production [2] | inhibition of IL-2 production [3] | inhibition of IFNg production [4] | thapsigargin-induced IFN-g production in human whole blood [5] | thapsigargin-induced upregulation of CD40L on T cells [6] | thapsigargin-induced upregulation of the IL-2R on T cells [7] | body weight lost (average) [8] [g] | disease severity and survival [8] | onset of disease [8] [days] | thapsigargin-induced IL-2 production in human whole blood [9] | duration of significant suppression of Kv1.3 current (<70 POC) by serum [10] [h] | inhibition of T cell proliferation [11] | staining of cells [12] | enzyme-immunoassay response on fixed Kv1.3 transfected cells [13] |
| --- | --- | --- | --- | --- | --- | --- | --- | --- | --- | --- | --- | --- | --- | --- | --- |
| CC[C@H](C)[C@@H]1NC(=O)[C@@H](NC(=O)[C@H](CO)NC(=O)[C@@H](N)CCCNC(=N)N)CSSC[C@@H](C(=O)O)NC(=O)[C@H]([C@@H](C)O)NC(=O)CNC(=O)[C@@H]2CSSC[C@@H]3NC(=O)[C@H](CCC(N)=O)NC(=O)[C@H](Cc4ccccc4)NC(=O)[C@H](C)NC(=O)[C@H]([C@@H](C)O)NC(=O)[C@H](CSSC[C@H](NC(=O)[C@H](Cc4ccccc4)NC(=O)[C@H](CO)NC(=O)[C@H](CC(C)C)NC(=O)[C@H](CCCNC(=N)N)NC(=O)[C@H](Cc4ccc(O)cc4)NC(=O)[C@H](CCCCN)NC(=O)[C@H](CCSC)NC(=O)[C@H](CO)NC(=O)[C@H](Cc4cnc[nH]4)NC(=O)[C@H](CCCCN)NC3=O)C(=O)N[C@@H](CCCNC(=N)N)C(=O)N[C@@H](CCCCN)C(=O)N[C@@H]([C@@H](C)O)C(=O)N2)NC(=O)[C@H](CCCNC(=N)N)NC(=O)[C@H](CO)NC(=O)[C@H](CCCCN)NC(=O)[C@@H]2CCCN2C(=O)[C@H]([C@@H](C)CC)NC(=O)[C@H]([C@@H](C)O)NC(=O)[C@H](CC(=O)O)NC1=O [ShK, reference compound] | partial inhibition | partial inhibition | partial inhibition | partial inhibition | suppressed | suppressed | suppressed | 30 | developed severe disease and died | 4 | suppressed | ≤ 1 | – | – | – |
| Fc-L10-ShK[1-35]: Fc region of human IgG1 fused in-frame to L10 linker and a monomer of Kv1.3 inhibitor peptide ShK[1-35] | complete inhibition | complete inhibition | nearly complete inhibition | nearly complete inhibition | – | suppressed | suppressed | – | – | – | – | – | potently inhibits proliferation of T cells in a dose-dependent manner | stains HEK 293 cells stably transfected with human Kv1.3 | dose-dependent increase in response |
